Consider 31 compounds from patent US12600696B2 (XENIOPRO GMBH, priority 2017, dated 2026).

The assay has as its system HL-60 cells (human acute myeloid leukemia cells). The assay is described as follows: alamarBlue proliferation assay with HL-60 cells. It counts as cell-based. The following applies: 120 h, 5 days, relative to DMSO baseline level of 1.0, read-out: AVEw, weighted arithmetic mean of normalized fluorescence intensity values (Activity Range), HL-60 proliferation. The method, then: The antiproliferative activities of compounds falling under formula I, formula II, formula III, formula IV and formula V were investigated on cells or cell lines originating from a disorder of the myeloid cell compartment, the neuroendocrine system, the cervix, and the mucosal epithelium, as well as from the skin epithelium. To this end, HL-60 cells, TT cells, HeLa cells, CAL-27 cells and human primary epidermal keratinocytes (HPEK) were seeded into 96-well plates suitable for fluorescence assays (CORNING #3598) at following initial cell numbers: 1000 cells per well for HL-60; 9000 cells per well for TT; 2000 cells per well for HeLa, 2000 cells per well for CAL-27, 2000 cells per well for HPEK. The cells were treated with compounds at indicated final concentrations (diluted from the 1000× stock-solutions in DMSO to a final DMSO concentration of 0.1% v/v) or with the empty carrier DMSO at 0.1% v/v as control for 5 days. At day 5 after starting the treatments the cells were subjected to the alamarBlue® Proliferation Assay (Bio-Rad Serotec GmbH, BUF012B) according to the protocol of the manufacturer. The readout was taken with a multi-well plate-reader in the fluorescence mode with applying a filter for excitation at 560 nm (band width 10 nm) and for emission at 590 nm (band width 10 nm). Resveratrol (RES) treatment was included as control for growth inhibition.
The assays were performed in duplicate or more replicates of independent single experiments each containing a six-fold replicate for every condition. For every individual plate, the measured fluorescence intensity values of the conditions with compound treatment were normalized against the corresponding equally weighted arithmetic mean of the fluorescence intensity values of the six DMSO treated control wells in order to obtain the relative values to a baseline level of 1.0. The statistical calculations were performed in analogy to the luciferase assay as described above. To this end, two independent outlier analyses were performed according to the methods by Peirce and Chauvenet (Ross, Journal of Engineering Technology 2003, 1-12). Outliers confirmed by at least one of the methods were excluded from the calculations but not more than one value out of six per compound within a single experiment. The weighted arithmetic mean AVEw for each compound was calculated from the normalized values over all independent replicates of the single experiments comprising the six replicates each. The corresponding standard deviation for the weighted arithmetic mean was calculated according to the method described by Bronstein et al. (Bronstein, Semendjajew, Musiol, Mühlig, Taschenbuch der Mathematik, 5th edition 2001 (German), publisher: Verlag Harri Deutsch, Frankfurt am Main and Thun) and was combined with the Gauß′ error propagation associated with the performed calculation for the normalization. The resulting standard deviation is herein referred to as “combined standard deviation”.
HL-60 cells were cultivated according to the protocol of the provider in RPMI 1640 medium (Fisherscientific, #11554526) containing 10% fetal bovine serum (Fisherscientific, #15517589).
A compound is considered as a growth inhibitor of HL-60 cells, if—at a reference concentration of 20 μM—the weighted arithmetic mean of the normalized fluorescence intensity values after addition of the corresponding combined standard deviation amounts to 0.9 or lower, in particular to 0.8 or lower, 0.7 or lower, 0.6 or lower, 0.4 or lower, and 0.2 or lower, relative to the overall basis level of 1.0. The overall basis level was calculated as the weighted arithmetic mean of all normalized values from the DMSO control measurements in analogy to the calculations performed for the test-compounds. The corresponding combined standard deviation for the DMSO values amounts to less than 1·10^−2.
On the technique in general: The colour change of resazurin is a common sign of viable cells or microbes.
With `CCc1ccc(Oc2ccc(C(=O)O)cc2)cc1` [Compound 002, 4-(4-ethylphenoxy)benzoic acid], the activity at 20 µM is 80 to 90%.

On to `CCOC(=O)c1ccc(Oc2ccc(C(C)C)cc2)cc1` [Compound 054, ethyl 4-(4-isopropylphenoxy)benzoate], for which the activity at 20 µM lay within 80 to 90%.

For the compound `O=C(O)c1ccc(Oc2ccc(C3CC4CCC3CC4)cc2)nc1` (stereo not shown) [Compound 087, 6-(4-((1s,4s)-bicyclo[2.2.2]octan-2-yl)phenoxy)nicotinic acid], the activity at 20 µM was in the range of 80 to 90%.

Take `CCc1ccc(Oc2ccc(C(=O)NO)cc2)cc1` [Compound 165, 4-(4-ethylphenoxy)-N-hydroxybenzamide]: the activity at 20 µM is 80 to 90%.

Turning to `CCCCc1ccc(Oc2ccc(C(=O)N(C)C)cc2)cc1` [Compound 218, 4-(4-butylphenoxy)-N,N-dimethylbenzamide], the activity at 20 µM was 40 to 60%.

`CCC(C)(C)c1ccc(Oc2ccc(C(=O)N(C)C)cc2)cc1` [Compound 223, N,N-dimethyl-4-(4-(tert-pentyl)phenoxy)benzamide]: the activity at 20 µM fell in the range of 70 to 80%.

Turning to `CCCCCc1ccc(Oc2ccc(C(N)=O)cn2)cc1` [Compound 245, 6-(4-pentylphenoxy)nicotinamide], the activity at 20 µM was 80 to 90%.

For `CCC(C)(C)c1ccc(Oc2ccc(C(N)=O)cn2)cc1` [Compound 248, 6-(4-(tert-pentyl)phenoxy)nicotinamide], the activity at 20 µM lay in the range of 80 to 90%.

Take `CCC(C)(C)c1ccc(Oc2ccc(C(=O)NC)cn2)cc1` [Compound 298, N-methyl-6-(4-(tert-pentyl)phenoxy)nicotinamide]: the activity at 20 µM was in the range of 80 to 90%.

Turning to `CCCCCc1ccc(Oc2ccc(C(=O)N(C)C)cn2)cc1` [Compound 320, N,N-dimethyl-6-(4-pentylphenoxy)nicotinamide], the activity at 20 µM lay in the range of 40 to 60%.

Turning to `CCOC(=O)c1ccc(Oc2ccc(C34CC5CC(CC(C5)C3)C4)cc2)c(F)c1` [Compound 414, ethyl 4-(4-((3r,5r,7r)-adamantan-1-yl)phenoxy)-3-fluorobenzoate], the activity at 20 µM was in the range of 60 to 70%.

In the case of `O=C(O)c1cnc(Oc2ccc(C(F)(F)F)cc2)c(F)c1` [Compound 427, 5-fluoro-6-(4-(trifluoromethyl)phenoxy)nicotinic acid], the activity at 20 µM fell in the range of 80 to 90%.

For the compound `CCOC(=O)c1cnc(Oc2ccc(C(C)(C)CC)cc2)c(F)c1` [Compound 477, ethyl 5-fluoro-6-(4-(tert-pentyl)phenoxy)nicotinate], the activity at 20 µM is 80 to 90%.

Turning to `CCOC(=O)c1cnc(Oc2ccc(C3CCCCC3)cc2)c(F)c1` [Compound 488, ethyl 6-(4-cyclohexylphenoxy)-5-fluoronicotinate], the activity at 20 µM was 70 to 80%.

For `CCOC(=O)c1cnc(Oc2ccc(C34CC5CC(CC(C5)C3)C4)cc2)c(F)c1` [Compound 492, ethyl 6-(4-((3r,5r,7r)-adamantan-1-yl)phenoxy)-5-fluoronicotinate], the activity at 20 µM lay within 60 to 70%.

Consider `CCC(C)(C)c1ccc(Oc2ccc(C(=O)N(C)C)cc2F)cc1` [Compound 581, 3-fluoro-N,N-dimethyl-4-(4-(tert-pentyl)phenoxy)benzamide], for which the activity at 20 µM is 70 to 80%.

Take `CN(C)C(=O)c1ccc(Oc2ccc(C3CCCCC3)cc2)c(F)c1` [Compound 592, 4-(4-cyclohexylphenoxy)-3-fluoro-N,N-dimethylbenzamide]: the activity at 20 µM lay within 80 to 90%.

In the case of `CNC(=O)c1cnc(Oc2ccc(C34CC5CC(CC(C5)C3)C4)cc2)c(F)c1` [Compound 674, 6-(4-((3r,5r,7r)-adamantan-1-yl)phenoxy)-5-fluoro-N-methylnicotinamide], the activity at 20 µM is 70 to 80%.

Regarding `CCC(C)(C)c1ccc(Oc2ncc(C(=O)N(C)C)cc2F)cc1` [Compound 685, 5-fluoro-N,N-dimethyl-6-(4-(tert-pentyl)phenoxy)nicotinamide], the activity at 20 µM was in the range of 70 to 80%.

As for `CN(C)C(=O)c1cnc(Oc2ccc(C34CC5CC(CC(C5)C3)C4)cc2)c(F)c1` [Compound 700, 6-(4-((3r,5r,7r)-adamantan-1-yl)phenoxy)-5-fluoro-N,N-dimethylnicotinamide], the activity at 20 µM fell in the range of 60 to 70%.

Take `CCOC(=O)c1ccc(Oc2ccc(C3(C(F)(F)F)CC3)cc2)c(F)c1` [Compound 723, ethyl 3-fluoro-4-(4-(1-(trifluoromethyl)cyclopropyl)phenoxy)benzoate]: the activity at 20 µM is 80 to 90%.

Take `O=C(O)c1ccc(Oc2ccc(C3(C(F)(F)F)CC3)cc2Cl)nc1` [Compound 738, 6-(2-chloro-4-(1-(trifluoromethyl)cyclopropyl)phenoxy)nicotinic acid]: the activity at 20 µM lay in the range of 80 to 90%.

Take `COC(=O)c1ccc(Oc2ccc(C3(C(F)(F)F)CC3)cc2)nc1` [Compound 739, methyl 6-(4-(1-(trifluoromethyl)cyclopropyl)phenoxy)nicotinate]: the activity at 20 µM lay within 80 to 90%.

On to `COC(=O)c1ccc(Oc2ccc(C3(C(F)(F)C(F)(F)F)CC3)cc2)nc1` [Compound 740, methyl 6-(4-(1-(perfluoroethyl)cyclopropyl)phenoxy)nicotinate], for which the activity at 20 µM was 80 to 90%.

Consider `CCOC(=O)c1ccc(Oc2ccc(C3(C(F)(F)F)CC3)cc2Cl)nc1` [Compound 756, ethyl 6-(2-chloro-4-(1-(trifluoromethyl)cyclopropyl)phenoxy)nicotinate], for which the activity at 20 µM lay in the range of 70 to 80%.

For the compound `CN(C)C(=O)c1ccc(Oc2ccc(C3(C(F)(F)C(F)(F)F)CC3)cc2)cc1` [Compound 785, N,N-dimethyl-4-(4-(1-(perfluoroethyl)cyclopropyl)phenoxy)benzamide], the activity at 20 µM lay in the range of 70 to 80%.

Turning to `CN(C)C(=O)c1ccc(Oc2ccc(C3(C(F)(F)F)CC3)cc2)c(F)c1` [Compound 786, 3-fluoro-N,N-dimethyl-4-(4-(1-(trifluoromethyl)cyclopropyl)phenoxy)benzamide], the activity at 20 µM fell in the range of 70 to 80%.

As for `CN(C)C(=O)c1ccc(Oc2ccc(C3(C(F)(F)F)CC3)cc2Cl)cc1` [Compound 792, 4-(2-chloro-4-(1-(trifluoromethyl)cyclopropyl)phenoxy)-N,N-dimethylbenzamide], the activity at 20 µM lay in the range of 80 to 90%.

Take `NC(=O)c1ccc(Oc2ccc(C3(C(F)(F)F)CC3)cc2)nc1` [Compound 793, 6-(4-(1-(trifluoromethyl)cyclopropyl)phenoxy)nicotinamide]: the activity at 20 µM was 80 to 90%.

As for `CNC(=O)c1ccc(Oc2ccc(C3(C(F)(F)F)CC3)cc2)nc1` [Compound 811], the activity at 20 µM lay within 80 to 90%.

Turning to `CN(C)C(=O)c1ccc(Oc2ccc(C3(C(F)(F)C(F)(F)F)CC3)cc2)nc1` [Compound 821, N,N-dimethyl-6-(4-(1-(perfluoroethyl)cyclopropyl)phenoxy)nicotinamide], the activity at 20 µM was 60 to 70%.
